The supplement of paper PMC11061612

What was measured:
Assay in all cases: combination Emax (second highest fraction inhibited in the dose matrix, 72 h); higher = more inhibition; extreme values may be limits of the assay
[1] = test system: KG-1 (Acute Myeloid Leukemia)
In short: (§1)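 Cell lines grown in DMEM/F12 or RPMI with 10% FBS were plated in 1536-well plates and held 24 hours at 37°C, 5% CO2 before 72 hours of exposure to two-drug dose matrices, with DMSO typically at 0.2%. CellTiter-Glo 2.0 luminescence gave viability, which was converted to inhibition. Vehicle wells were set to 0 and blank wells to 1. Combination Emax is the second-highest inhibition in the matrix, and Bliss excess is the observed combination effect minus the expected EA + EB − EA·EB, where EA and EB are the single-agent effects.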

[2] = test system: HLE (Hepatocellular Carcinoma)
In short: as §1

[3] = test system: ETK-1 (Biliary Tract Carcinoma)
In short: as §1

[4] = test system: SNG-M (Endometrial Carcinoma)
In short: as §1

[5] = test system: TYK-nu (Ovarian Carcinoma)
In short: as §1

[6] = test system: PA-TU-8902 (Pancreatic Carcinoma)
In short: as §1

[7] = test system: CAL-39 (Other Solid Carcinomas)
In short: as §1

[8] = test system: HCC1143 (Breast Carcinoma)
In short: as §1

[9] = test system: YT (Other Blood Carcinomas)
In short: as §1

H4 (Low Grade Glioma) = test system: H4 (Low Grade Glioma)
In short: as §1

[10] = test system: SNU-61 (Colorectal Carcinoma)
In short: as §1

Saos-2 (Osteosarcoma) = test system: Saos-2 (Osteosarcoma)
In short: as §1

[11] = test system: NCI-H1688 (Small Cell Lung Carcinoma)
In short: as §1

D-392MG (Glioblastoma) = test system: D-392MG (Glioblastoma)
In short: as §1

[12] = test system: HCT-116 (Colorectal Carcinoma)
In short: as §1

[13] = test system: D-283MED (Other Solid Carcinomas)
In short: as §1

[14] = test system: HOP-92 (Non-Small Cell Lung Carcinoma)
In short: as §1

MCF7 (Breast Carcinoma) = test system: MCF7 (Breast Carcinoma)
In short: as §1

[15] = test system: U-118-MG (Low Grade Glioma)
In short: as §1

[16] = test system: SW948 (Colorectal Carcinoma)
In short: as §1

Structure (SMILES)	combination Emax [1]	combination Emax [2]	combination Emax [3]	combination Emax [4]	combination Emax [5]	combination Emax [6]	combination Emax [7]	combination Emax [8]	combination Emax [9]	combination Emax (H4 (Low Grade Glioma))	combination Emax [10]	combination Emax (Saos-2 (Osteosarcoma))	combination Emax [11]	combination Emax (D-392MG (Glioblastoma))	combination Emax [12]	combination Emax [13]	combination Emax [14]	combination Emax (MCF7 (Breast Carcinoma))	combination Emax [15]	combination Emax [16]
C=CCn1c(=O)c2cnc(Nc3ccc(N4CCN(C)CC4)cc3)nc2n1-c1cccc(C(C)(C)O)n1 [AZD1775] + O=C(c1cc(Cc2n[nH]c(=O)c3ccccc23)ccc1F)N1CCN(C(=O)C2CC2)CC1 [Olaparib] (first compound max 1 µM, partner max 10 µM)	0.412	0.823	0.515	0.668	0.698	0.289	0.402	0.593	0.902	0.853	0.302	0.613	0.6	0.235	0.635	1	0.596	0.332		
CCN(CCO)CCCOc1ccc2c(Nc3cc(CC(=O)Nc4cccc(F)c4)[nH]n3)ncnc2c1 [AZD2811] + C=CCn1c(=O)c2cnc(Nc3ccc(N4CCN(C)CC4)cc3)nc2n1-c1cccc(C(C)(C)O)n1 [AZD1775] (first compound max 1 µM, partner max 1 µM)	0.436	0.935	0.479	0.482	0.708	0.222	0.415	0.623	0.888	0.782	0.212	0.704	0.568	0.168	0.547	1	0.646	0.303	0.333	
CCN(CCO)CCCOc1ccc2c(Nc3cc(CC(=O)Nc4cccc(F)c4)[nH]n3)ncnc2c1 [AZD2811] + C[C@@H]1COCCN1C2=NC(=NC(=C2)C3(CC3)[S@](=N)(=O)C)C4=C5C=CNC5=NC=C4 [AZD6738] (first compound max 1 µM, 7x7, partner max 10 µM)	0.699	0.76	0.562	0.932	0.717	0.216	0.467	0.824	0.76	0.808	0.297	0.588	0.271	0.392	0.562	1	0.626	0.58	0.52	
CCN(CCO)CCCOc1ccc2c(Nc3cc(CC(=O)Nc4cccc(F)c4)[nH]n3)ncnc2c1 [AZD2811] + O=C(c1cc(Cc2n[nH]c(=O)c3ccccc23)ccc1F)N1CCN(C(=O)C2CC2)CC1 [Olaparib] (first compound max 1 µM, 7x7, partner max 10 µM)	0.37	0.409	0.216	0.25	0.359	0.187	0.324	0.372	0.309	0.558	0.171	0.456	0.196	0.174	0.452	0.817	0.363	0.224	0.377	
CS(=O)(=O)CCNCc1ccc(-c2ccc3ncnc(Nc4ccc(OCc5cccc(F)c5)c(Cl)c4)c3c2)o1 [Lapatinib] + Cn1cnc2c(F)c(Nc3ccc(Br)cc3Cl)c(C(=O)NOCCO)cc21 [Selumetinib] (first compound max 10 µM, 7x7, partner max 10 µM)		0.234		0.43			1		0.725	0.27		0.289		0.396	0.775	0.935				0.774
CS(=O)(=O)CCNCc1ccc(-c2ccc3ncnc(Nc4ccc(OCc5cccc(F)c5)c(Cl)c4)c3c2)o1 [Lapatinib] + NC1(c2ccc(-c3nc4ccn5c(=O)[nH]nc5c4cc3-c3ccccc3)cc2)CCC1 [MK-2206] (first compound max 10 µM, 7x7, partner max 10 µM)		0.597	0.947	0.667	0.894	0.72	0.999	0.89	0.945	0.883		0.426	0.819	0.189	0.891	0.96	0.685	0.953		0.655
CCc1c2c(nc3ccc(O)cc13)-c1cc3c(c(=O)n1C2)COC(=O)[C@]3(O)CC [SN-38] + O=C(c1cc(Cc2n[nH]c(=O)c3ccccc23)ccc1F)N1CCN(C(=O)C2CC2)CC1 [Olaparib] (first compound max 0.3 µM, 7x7, partner max 10 µM)		0.945	0.63	0.62	0.766	0.428	0.979		0.895	0.938		0.96	0.534	0.435	0.9	0.947		0.654		0.647
Cc1nc(-c2cn3c(n2)-c2ccc(-c4cnn(C(C)(C)C(N)=O)c4)cc2OCC3)n(C(C)C)n1 [Taselisib] + O=C(Nc1ccc2[nH]nc(-c3ccncc3)c2c1)[C@@H]1CCN(CC(=O)N2CCN(c3ccc(-c4ncccn4)cc3)CC2)C1 [SCH772984] (first compound max 10 µM, 7x7, partner max 5 µM)		0.33		0.76			1		0.597	0.68		0.703		0.799	1	0.775				0.964
